From patent publication US6506797B1, “Substituted phenylpropionic acid derivatives as agonists to human peroxisome proliferator-activated receptor (PPAR) α” (Kyorin Pharmaceutical Co., Ltd., priority 1999, dated 2003)

Tests used:
[1] = molecular target: T1, human peroxisome proliferator-activated receptor (PPAR)α (Homo sapiens, UniProt Q07869); test: Transactivation assay for human PPARα (CHO cells, luciferase reporter); assay type: cell-based; design: expressed in transfected cells; host or cells: CHO cells
T1 sequence (Q07869 239-466 limits assumed): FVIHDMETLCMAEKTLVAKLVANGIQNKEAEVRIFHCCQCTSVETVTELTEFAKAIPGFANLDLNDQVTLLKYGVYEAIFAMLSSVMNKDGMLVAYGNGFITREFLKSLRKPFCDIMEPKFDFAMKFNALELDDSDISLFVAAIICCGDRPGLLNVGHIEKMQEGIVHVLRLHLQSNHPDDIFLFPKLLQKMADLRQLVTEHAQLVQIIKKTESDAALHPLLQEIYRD
Source text: Transactivation assay for human peroxisome proliferator-activated receptor (PPAR)α
To CHO cells cultured in a Dulbecco-modified Eagle's medium containing 10% delipidated fetal calf serum (FCS/DMEM), receptor plasmid that eXpresses fused protein of DNA-binding domain being transcription factor of yeast with ligand-binding domain of human type PPARα (Biochemistry, 1993, 32, 5598) its reporter plasmid (STRATAGENE Corp.), and luciferase plasmid of Renilla (Promega Corp.) as an internal standard were cotransfected with lipofectamine in the serum-free state. Thereafter, testing compound and (8S)-HETE being control compound were added to 10% FCS/DMEM and both luciferase activities were measured after 24 hours, which were corrected with internal standard.
Test of transcription activation on human peroxisome proliferator-activated receptor (PPAR)α
The test of transcription activation on human peroxisome proliferator-activated receptor (PPAR)α shown in Test example 1 was performed to obtain results shown in Table 19.

[2] = molecular target: T1, human peroxisome proliferator-activated receptor (PPAR)α; test: Binding assay to human PPARα (His-hPPARα-LBD, [3H] ligand); design: expressed in transfected cells
Description: Binding assay to human peroxisome proliferator-activated receptor (PPAR)α
A plasmid that eXpresses protein of human PPARα-ligand binding domain attached with histidine tag (His-hPPARα-LBD) was cultured by infecting to Escherichia coli (JM-109) and aimed protein was recovered and purified. [^3H]-5-[(2,4-dioxothiazolidine-5-yl)methyl]-2-methoxy-N-[[4-(trifluoromethyl)phenyl]methyl]benzamide (Amasham), testing compound and (8S)-HETE being control compound were incubated for 45 minutes at room temperature at various concentrations together with His-hPPARα-LBD protein in 10 mmol/l Tris hydrochloride buffer (pH 7.4) containing 50 mmol/l potassium chloride and 10 mmol/l dithiothreitol. After the reaction, amount of [^3H]-5-[(2,4-dioxothiazolidine-5-yl)methyl]-2-methoxy-N-[[4-(trifluoromethyl)phenyl]methyl]benzamide was determined by a liquid scintillation counter.

SD strain male rats = test: Test on lipid-lowering action in fructose-loaded-diet rats; assay type: in vivo; conditions: versus vehicle control
Description: Test on Lipid-lowering Action
After SD strain male rats (Nippon Charles Liver) were bred from 8-(weeks old) with feed (Nippon Clear), test was started from 11-(weeks old). After (fasting) for 2 days, testing compound and Bezafibrate (30 mg/kg), being control compound, suspended into 0.5% solution of arabic gum were administered orally once a day for continuous 4 days. For the feed during administration period, AIN-93M modified fructose-loaded diet (Oriental Yeast) was used. After administration for 4 days, blood was collected from (trial) vein and the blood levels of triglyceride, total cholesterol, and free fatty acid were determined by enzymatic method.
The lowering rate of triglyceride in blood, overall cholesterol and free fatty acid was calculated, respectively, by determining the proportion of a figure obtained by subtracting average level of triglyceride in blood (or, average level of (total) cholesterol or level of free fatty acid) of dosage group from average level of triglyceride in blood (or, average level of (total) cholesterol or level of free fatty acid) of vehicle control group to average level of triglyceride in blood (or, average level of overall cholesterol or level of free fatty acid) of vehicle control group.

[3] = Table 19 (Test example 4), method of Test example 1, read-out: Transcriptional activity EC50
[4] = 30 mg/kg orally once a day for 4 days
[5] = 10 mg/kg orally once a day for 4 days

melting point [°C] | EC50 [2] [nM] | EC50 [1] [nM] | Structure (SMILES) | further results
85 to 86 | – | – | CCC[C@@H](Cc1ccc(OC)c(C(=O)NCc2ccc(Oc3ccccc3)cc2)c1)C(=O)O [Example 178] | EC50 [1, 3]: 94 nM
155 to 156 | 840 | 200 | COc1ccc(CC(C)C(=O)O)cc1C(=O)NCc1ccc(C(F)(F)F)cc1 (stereo not drawn) [Example 30] | –
161 to 163 | 560 | 180 | COc1ccc(CC(OC)C(=O)O)cc1C(=O)NCc1ccc(C(F)(F)F)cc1 (stereo not drawn) [Example 24] | –
126 to 127 | – | – | CCC[C@@H](Cc1ccc(OC)c(C(=O)NCc2ccc(Oc3ccc(F)cc3)cc2)c1)C(=O)O [Example 179] | EC50 [1, 3]: 9.2 nM

The next lines start with the compound.

Structure (SMILES) | melting point [°C] | EC50 [2] [nM] | EC50 [1] [nM] | further results
CC(C)(Oc1ccc(CCNC(=O)c2ccc(Cl)cc2)cc1)C(=O)O [Bezafibrate, reference compound] | – | – | – | Lowering rate (%) Free fatty acid (SD strain male rats; [4]): 37%; Lowering rate (%) Total cholesterol (SD strain male rats; [4]): 49%; Lowering rate (%) Triglyceride in blood (SD strain male rats; [4]): 64%
CC[C@@H](Cc1ccc(OC)c(C(=O)NCc2ccc(C(F)(F)F)cc2)c1)C(=O)O | 128 to 130 | – | – | –
CCC(Cc1ccc(OC)c(C(=O)NCc2ccc(-c3ccccc3)cc2)c1)C(=O)O (stereo not drawn) [Example 22] | 158.5 to 159.5 | 430 | 110 | –
COc1ccc(CC(C)(C)C(=O)O)cc1C(=O)NCc1ccc(C(F)(F)F)cc1 | 151 to 152 | – | – | –
CCC(Cc1ccc(OC)c(C(=O)NCc2ccc(Oc3ccccc3)cc2)c1)C(=O)O (stereo not drawn) [Example 23] | – | 740 | 24 | –
CCC(Cc1ccc(OC)c(C(=O)NCc2ccc(C(F)(F)F)cc2)c1)C(=O)O (stereo not drawn) [46] | 128 to 130 | – | – | –
CC[C@@H](Cc1ccc(OC)c(C(=O)NCc2ccc(Oc3ccc(F)cc3)cc2)c1)C(=O)O [Example 174, (S)-(+)-2-ethyl-3-[4-methoxy-3-[N-[(4-fluorophenoxyphenyl)methyl]carbamoyl]phenyl]propanoic acid] | – | – | – | EC50 [1, 3]: 24 nM
CCC(Cc1ccc(OC)c(C(=O)NCc2ccc(C(F)(F)F)cc2)c1)C(=O)O (stereo not drawn) [Example 20, 2-Ethyl-3-[4-methoxy-3-[N-[[4-(trifluoromethyl)phenyl]-methyl]carbamoyl]phenyl]propanoic acid] | 144.5 to 146.5 | 190 | 11.5 | Lowering rate (%) Free fatty acid (SD strain male rats; [5]): 77%; Lowering rate (%) Total cholesterol (SD strain male rats; [5]): 25%; Lowering rate (%) Triglyceride in blood (SD strain male rats; [5]): 53%; Lowering rate (%) Free fatty acid (SD strain male rats; [4]): 53%; Lowering rate (%) Total cholesterol (SD strain male rats; [4]): 55%; Lowering rate (%) Triglyceride in blood (SD strain male rats; [4]): 56%
CCCCC/C=C\C/C=C\C=C\[C@@H](O)C/C=C\CCCC(=O)O [(8S) HETE, (8S)-HETE, reference compound] | – | – | – | EC50 ([2]; His-hPPARα-LBD, 45 minutes at room temperature, pH 7.4, read-out: Binding activity EC50): 170 nM; EC50 ([1]; Table 17, CHO cells, human PPARα LBD fusion, luciferase after 24 hours, read-out: Transcriptional activity EC50): 1300 nM
